According to US10968203B2, “Pyrimidinyl-pyridyloxy-naphthyl compounds and methods of treating IRE1-related diseases and disorders” (Genentech, Inc., priority 2017, dated 2021):
Like-named read-outs stand apart in the source and are kept apart here.

System: XBP1s-luc 293 LUC
Experiment: cellular PD assay, XBP1s-LUC reporter (Example 903)
Format: cell-based
Settings: read-out: XBP1s-luc 293 LUC (IC50)
Procedure, shortened: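 Cellular IRE1α pathway activity was quantified from the luciferase signal of an XBP1-Luc reporter, where the luciferase fusion is in frame and expressed only from the spliced XBP1 transcript.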

| SMILES | IC50 (Table 1) [nM] | IC50 [nM] |
| --- | --- | --- |
| Cc1nc(CNc2cccc3c(Oc4ncccc4-c4ccnc(N[C@H]5CCCNC5)n4)c(C)ccc23)c(C)s1 [Example 294, (S)-4-(2-((5-(((2,5-Dimethylthiazol-4-yl)methyl)amino)-2-methylnaphthalen-1-yl)oxy)pyridin-3-yl)-N-(piperidin-3-yl)pyrimidin-2-amine] | 241 | – |
| Cc1ccc2c(NCc3ccccn3)c(F)ccc2c1Oc1ncccc1-c1ccnc(N[C@H]2CCCNC2)n1 [Example 296, (S)-4-(2-((6-Fluoro-2-methyl-5-((pyridin-2-ylmethyl)amino)naphthalen-1-yl)oxy)pyridin-3-yl)-N-(piperidin-3-yl)pyrimidin-2-amine] | 220 | – |
| Cc1ccc2c(N3CCC4(CC4)C3=O)cccc2c1Oc1ncccc1-c1ccnc(N[C@H]2CCCNC2)n1 [Example 297, (S)-5-(6-Methyl-5-((3-(2-(piperidin-3-ylamino)pyrimidin-4-yl)pyridin-2-yl)oxy)naphthalen-1-yl)-5-azaspiro[2.4]heptan-4-one] | 173 | – |
| Cc1ccc2c(NC[C@@H](O)C(F)(F)F)cccc2c1Oc1ncccc1-c1ccnc(N[C@H]2CCCNC2)n1 [Example 298, (R)-1,1,1-Trifluoro-3-((6-methyl-5-((3-(2-((S)-piperidin-3-ylamino)pyrimidin-4-yl)pyridin-2-yl)oxy)naphthalen-1-yl)amino)propan-2-ol] | 67.2 | – |
| Cc1ccc2c(NC[C@H](O)C(F)(F)F)cccc2c1Oc1ncccc1-c1ccnc(N[C@H]2CCCNC2)n1 [Example 299] | 8.58 | – |
| Cc1ccc2c(NC[C@@H](C)O)cccc2c1Oc1ncccc1-c1ccnc(N[C@H]2CCCNC2)n1 [Example 300, (R)-1-((6-Methyl-5-((3-(2-((S)-piperidin-3-ylamino)pyrimidin-4-yl)pyridin-2-yl)oxy)naphthalen-1-yl)amino)propan-2-ol] | 55.4 | – |
| Cc1ccc2c(NC[C@H](C)O)cccc2c1Oc1ncccc1-c1ccnc(N[C@H]2CCCNC2)n1 [Example 301, (S)-1-((6-Methyl-5-((3-(2-((S)-piperidin-3-ylamino)pyrimidin-4-yl)pyridin-2-yl)oxy)naphthalen-1-yl)amino)propan-2-ol] | 424 | – |
| Cc1ccc2c(NC(=O)CC(C)(C)C)cccc2c1Oc1ncccc1-c1ccnc(N[C@@H]2CNC[C@H](C)C2)n1 [Example 302, 3,3-Dimethyl-N-(6-methyl-5-((3-(2-(((3S,5R)-5-methylpiperidin-3-yl)amino)pyrimidin-4-yl)pyridin-2-yl)oxy)naphthalen-1-yl)butanamide] | 93.5 | – |
| Cc1ccc2c(NC(=O)CC3CCCCC3)cccc2c1Oc1ncccc1-c1ccnc(N[C@@H]2CNC[C@H](C)C2)n1 [Example 303, 2-Cyclohexyl-N-(6-methyl-5-((3-(2-(((3S,5R)-5-methylpiperidin-3-yl)amino)pyrimidin-4-yl)pyridin-2-yl)oxy)naphthalen-1-yl)acetamide] | 126 | – |
| Cc1ccc2c(NS(=O)(=O)CC(C)C)cccc2c1Oc1ncccc1-c1ccnc(N[C@@H]2CNC[C@H](C)C2)n1 [Example 304, 2-Methyl-N-(6-methyl-5-((3-(2-(((3S,5R)-5-methylpiperidin-3-yl)amino)pyrimidin-4-yl)pyridin-2-yl)oxy)naphthalen-1-yl)propane-1-sulfonamide] | 105 | – |
| CCCS(=O)(=O)Nc1cccc2c(Oc3ncccc3-c3ccnc(N[C@H]4CCCNC4)n3)c(F)ccc12 [Example 305, (S)—N-(6-Fluoro-5-((3-(2-(piperidin-3-ylamino)pyrimidin-4-yl)pyridin-2-yl)oxy)naphthalen-1-yl)propane-1-sulfonamide] | 481 | – |
| Cc1ccc2c(NCC(C)(C)O)cccc2c1Oc1ncccc1-c1ccnc(N[C@H]2CCCNC2)n1 [Example 306, (S)-2-Methyl-1-((6-methyl-5-((3-(2-(piperidin-3-ylamino)pyrimidin-4-yl)pyridin-2-yl)oxy)naphthalen-1-yl)amino)propan-2-ol] | 240 | – |
| Cc1nc(CNc2c(F)ccc3c(Oc4ncccc4-c4ccnc(N[C@@H]5CNC[C@H](C)C5)n4)c(C)ccc23)cs1 [Example 307, 4-(2-((6-Fluoro-2-methyl-5-(((2-methylthiazol-4-yl)methyl)amino)naphthalen-1-yl)oxy)pyridin-3-yl)-N-((3S,5R)-5-methylpiperidin-3-yl)pyrimidin-2-amine] | 360 | – |
| Cc1ccc2c(N3CCC4(CCCCC4)C3=O)cccc2c1Oc1ncccc1-c1ccnc(N[C@H]2CCCNC2)n1 [Example 308, (S)-2-(6-Methyl-5-((3-(2-(piperidin-3-ylamino)pyrimidin-4-yl)pyridin-2-yl)oxy)naphthalen-1-yl)-2-azaspiro[4.5]decan-1-one] | 211 | – |
| Cc1ccc2c(NC[C@H](O)c3ccccc3)cccc2c1Oc1ncccc1-c1ccnc(N[C@H]2CCCNC2)n1 [Example 309, (R)-2-((6-Methyl-5-((3-(2-((S)-piperidin-3-ylamino)pyrimidin-4-yl)pyridin-2-yl)oxy)naphthalen-1-yl)amino)-1-phenylethanol] | 433 | – |
| Cc1ccc2c(NC(=O)C3CC3)c(F)ccc2c1Oc1ncccc1-c1ccnc(N[C@@H]2CNC[C@H](C)C2)n1 [Example 310, N-(2-Fluoro-6-methyl-5-((3-(2-(((3S,5R)-5-methylpiperidin-3-yl)amino)pyrimidin-4-yl)pyridin-2-yl)oxy)naphthalen-1-yl)cyclopropanecarboxamide] | 135 | – |
| Cc1ccc2c(NS(=O)(=O)CCC(F)(F)F)c(F)ccc2c1Oc1ncccc1-c1ccnc(N[C@@H]2CNC[C@H](C)C2)n1 [Example 311, 3,3,3-Trifluoro-N-(2-fluoro-6-methyl-5-((3-(2-(((3S,5R)-5-methylpiperidin-3-yl)amino)pyrimidin-4-yl)pyridin-2-yl)oxy)naphthalen-1-yl)propane-1-sulfonamide] | 6.16 | – |
| CC[C@@H](O)CNc1cccc2c(Oc3ncccc3-c3ccnc(N[C@H]4CCCNC4)n3)c(C)ccc12 [Example 312, (R)-1-((6-Methyl-5-((3-(2-((S)-piperidin-3-ylamino)pyrimidin-4-yl)pyridin-2-yl)oxy)naphthalen-1-yl)amino)butan-2-ol] | 27.4 | – |
| CC[C@H](O)CNc1cccc2c(Oc3ncccc3-c3ccnc(N[C@H]4CCCNC4)n3)c(C)ccc12 [Example 313, (S)-1-((6-Methyl-5-((3-(2-((S)-piperidin-3-ylamino)pyrimidin-4-yl)pyridin-2-yl)oxy)naphthalen-1-yl)amino)butan-2-ol] | 148 | – |
| COC(=O)CNc1cccc2c(Oc3ncccc3-c3ccnc(N[C@H]4CCCNC4)n3)c(C)ccc12 [Example 314, (S)-Methyl 2-((6-methyl-5-((3-(2-(piperidin-3-ylamino)pyrimidin-4-yl)pyridin-2-yl)oxy)naphthalen-1-yl)amino)acetate] | 208 | – |
| Cc1ccc2c(N3CC[C@@H](CF)C3=O)cccc2c1Oc1ncccc1-c1ccnc(N[C@H]2CCCNC2)n1 [Example 315, (R)-3-(Fluoromethyl)-1-(6-methyl-5-((3-(2-(((S)-piperidin-3-yl)amino)pyrimidin-4-yl)pyridin-2-yl)oxy)naphthalen-1-yl)pyrrolidin-2-one] | 471 | – |
| Cc1ccc2c(N3CC[C@H](CF)C3=O)cccc2c1Oc1ncccc1-c1ccnc(N[C@H]2CCCNC2)n1 [Example 316, (S)-3-(Fluoromethyl)-1-(6-methyl-5-((3-(2-(((S)-piperidin-3-yl)amino)pyrimidin-4-yl)pyridin-2-yl)oxy)naphthalen-1-yl)pyrrolidin-2-one] | 213 | – |
| Cc1ccc2c(NS(=O)(=O)C3CCCCC3)c(F)ccc2c1Oc1ncccc1-c1ccnc(N[C@@H]2CNC[C@H](C)C2)n1 [Example 317, N-(2-Fluoro-6-methyl-5-((3-(2-(((3S,5R)-5-methylpiperidin-3-yl)amino)pyrimidin-4-yl)pyridin-2-yl)oxy)naphthalen-1-yl)cyclohexanesulfonamide] | 17.6 | – |
| Cc1ccc2c(Oc3ncccc3-c3ccnc(N[C@H]4CCCNC4)n3)c(C)ccc2c1NS(=O)(=O)CCC(F)(F)F [Example 318, (S)—N-(2,6-Dimethyl-5-((3-(2-(piperidin-3-ylamino)pyrimidin-4-yl)pyridin-2-yl)oxy)naphthalen-1-yl)-3,3,3-trifluoropropane-1-sulfonamide] | 41.7 | – |
| Cc1ccc2c(Oc3ncccc3-c3ccnc(N[C@H]4CCCNC4)n3)c(C)ccc2c1NC[C@H](O)C(F)(F)F [Example 319, (S)-3-((2,6-Dimethyl-5-((3-(2-((S)-piperidin-3-ylamino)pyrimidin-4-yl)pyridin-2-yl)oxy)naphthalen-1-yl)amino)-1,1,1-trifluoropropan-2-ol] | – | 48.2 |
| Cc1nc(CNc2cccc3c(Oc4ncccc4-c4ccnc(N[C@H]5CCCNC5)n4)c(C)ccc23)no1 [Example 320, 4-[2-[[2-Methyl-5-[(5-methyl-1,2,4-oxadiazol-3-yl)methylamino]-1-naphthyl]oxy]-3-pyridyl]-N-[(3S)-3-piperidyl]pyrimidin-2-amine] | 740 | – |
| Cc1ccc2c(NC[C@H](O)C(F)(F)F)cccc2c1Oc1ncccc1-c1ccnc(N[C@@H]2CNC[C@H](C)C2)n1 [Example 321, (S)-1,1,1-Trifluoro-3-((6-methyl-5-((3-(2-(((3S,5R)-5-methylpiperidin-3-yl)amino)pyrimidin-4-yl)pyridin-2-yl)oxy)naphthalen-1-yl)amino)propan-2-ol] | 7.36 | – |
| Cc1nc(CNc2cccc3c(Oc4ncccc4-c4ccnc(N[C@@H]5CNC[C@H](C)C5)n4)c(C)ccc23)cs1 [Example 323, 4-(2-((2-Methyl-5-(((2-methylthiazol-4-yl)methyl)amino)naphthalen-1-yl)oxy)pyridin-3-yl)-N-((3S,5R)-5-methylpiperidin-3-yl)pyrimidin-2-amine] | 88.9 | – |
| Cc1ccc2c(NS(=O)(=O)N(C)C)c(F)ccc2c1Oc1ncccc1-c1ccnc(N[C@H]2CCCNC2)n1 [Example 324, 4-[2-[[5-(Dimethylsulfamoylamino)-6-fluoro-2-methyl-1-naphthyl]oxy]-3-pyridyl]-2-[[(3S)-3-piperidyl]amino]pyrimidine] | 45.5 | – |
